One assay relates to 5xFAD mice. As to the kind of experiment: Plasma NfL in 5xFAD mice (NF-light ELISA). Type of assay: in vivo, mouse. The conditions noted are these: compared to saline-treated transgenic mice. The method, then:
HCQ nano (poly(L-lysine succinylated)-HCQ, or PLS-HCQ) preparation: 2.5 mL of saline were added to each vial of lyophilized material on each dose day and vortexed briefly to mix. Fresh vials were prepared daily. Solution was pale yellow in color and was protecedt from light. Remaining material was discardedafter animals were successfully dosed each day. […] 100 mg/kg, i.p. injection 10 μL/g b.w.
TUDCA preparation: Dissolved in saline; treatment dosage 500 mg/kg; i.p. injection 10 μL/g b.w.
Animal management: Animals were housed in individual ventilated cages on standardized rodent bedding supplied by Rettenmaier. Each cage contained a maximum of five mice. The temperature in the keeping room was maintained between 20 to 24° C. and the relative humidity was maintained between 45 to 65%. Animals were housed under a constant light-cycle (12 hours light/dark). […]
The NF-light® (Neurofilament-light) ELISA 10-7001 CE from UmanDiagnostics was used for analysis. The following samples were analyzed: terminal CSF, terminal blood plasma as well as all 4 timepoints from the in vivo bleedings from 6 animals per groups (3 groups; 18 animals, 108 samples in total). Samples were diluted (1:3 for plasma, 1:35 for CSF) in assay buffer and analyzed according to the manufacturers protocol. CSF and in vivo samples are analyzed in single replicates only, due to limited sample volume. […]
Background: ELISA stands for enzyme-linked immunosorbent assay.

In assay [1] the test system is hippocampal CA1 synapses of APP/PS1 mice. The experiment in a line: Late long-term potentiation, field recordings in hippocampal slices. Also noted: species or system mouse. The conditions noted are these: for impaired late-LTP: APP/PS1 slices.
The mark [2] stands for this setting: WT and APP/PS1 before and after HCQ.

For the compound `CCN(CCO)CCCC(C)Nc1ccnc2cc(Cl)ccc12` (centres unmarked) [HCQ, hydroxychloroquine], the “peak in plasma NfL levels” value in the assay on 5xFAD mice (100 mg/kg i.p.) is on record as “partially lowered”. Also, the “impaired late-LTP” value in assay [1] (25 μM HCQ sulphate, bath-applied 60 min) is listed as “partially rescued”; in assay [1] (50 μM HCQ sulphate), “fully rescued”. The “input-output (I/O) curves” value in assay [1] (setting [2]) is “did not show any significant differences”. Further, the “paired pulse ratio (PPR)” value in assay [1] (setting [2]) is on record as “did not show a significant difference”. For the same compound, the “L-LTP in wild type slices” value in assay [1] (wild type mice, 50 μM HCQ, vs untreated wild type) is on record as “does not alter L-LTP”.
As for `C[C@H](CCC(=O)NCCS(=O)(=O)O)[C@H]1CC[C@H]2[C@@H]3[C@@H](O)C[C@@H]4C[C@H](O)CC[C@]4(C)[C@H]3CC[C@]12C` [TUDCA, tauroursodeoxycholic acid], the “peak plasma NfL levels” value with 5xFAD mice (500 mg/kg i.p.) was “partially lowered”. Moreover, the “LTP in APP/PS1 mice” value in assay [1] (100 μM TUDCA) is recorded as “no longer induced LTP”.

The values are drawn from patent publication US20240269128A1, “COMPOUNDS FOR TREATING OR PREVENTING ALZHEIMER'S DISEASE” (THE UNITED STATES OF AMERICA, as represented by the …, priority 2021, published 2024).
